Experimental data as given in the NIST ThermoML archive (doi:10.1016/j.tca.2010.05.016).

Assay: mn = molality of the nth substance listed, in mol/kg
Conditions: 101 kPa, Liquid; for speed of sound: Vibrating Tube; for mass density: Vibrating tube method

NCC(=O)NCC(=O)NCC(=O)O [glycylglycylglycine] + O
Conditions	mass density, 288.15 K [kg/m3]	mass density, 293.15 K [kg/m3]	mass density, 298.15 K [kg/m3]	mass density, 303.15 K [kg/m3]	mass density, 308.15 K [kg/m3]	speed of sound, 288.15 K [m/s]	speed of sound, 293.15 K [m/s]	speed of sound, 298.15 K [m/s]	speed of sound, 303.15 K [m/s]	speed of sound, 308.15 K [m/s]
m1 = 0.03587	1001.94	1001	999.808	998.381	996.783	1470.6	1486.7	1500.8	1512.9	1523.3
m1 = 0.04684	1002.79	1001.85	1000.64	999.208	997.565	1471.6	1487.8	1501.8	1514	1524.3
m1 = 0.05855	1003.69	1002.74	1001.52	1000.08	998.435	1473	1489	1503	1515.1	1525.4
m1 = 0.06301	1004.03	1003.07	1001.86	1000.41	998.76	1473.4	1489.4	1503.4	1515.5	1525.8
m1 = 0.07743	1005.13	1004.16	1002.93	1001.54	999.825	1475	1490.8	1504.8	1516.8	1527.3
m1 = 0.09073	1006.13	1005.15	1003.92	1002.46	1000.79	1476.5	1492.6	1506	1518.4	1528.5
m1 = 0.1016	1006.95	1005.96	1004.73	1003.26	1001.58	1477.7	1493.4	1507.3	1519.3	1529.5
